From paper PMC10780244, “Antileishmanial Effect of 1,5- and 1,8-Substituted Fused Naphthyridines” (Molecules, 2023)

Columns and labels:
[1] = Drug tolerance in murine intestinal organoids (alamarBlue); assay type: cell-based, mouse; settings: Balb/c, mouse, murine intestinal organoids, 72 h exposure
Method: (§1) Amastigotes obtained from mouse bone marrow cells were used to perform a first screening with the complete series of fused 1,5- and 1,8-naphthyridines. […] The toxicity of these selected compounds was assessed in non-infected splenic cells and the cytotoxic concentration (CC50) value obtained was used to calculate the selective index (SI). The oral tolerability of these same compounds was tested by calculating the viability of murine intestinal organoids exposed to two concentrations (50 and 25 µM).
(§2) Preparation and maintenance of murine intestinal organoids cultures were performed following the protocols published by Stemcell Technologies™ (https://www.stemcell.com/intestinal-epithelial-organoid-culture-with-intesticult-organoid-growth-medium-mouse-lp.html#protocols, accessed on 14 December 2023) with some modifications. Briefly, a section of small intestine from a Balb/c mouse was extracted and washed with ice-cold PBS. This section was cut into pieces around 2 mm each, washed 15–20 times with ice-cold PBS and incubated with Gentle Cell Dissociation Reagent (Stemcell Technologies™, Vancouver, BC, Canada) for 20 min. Then, the pieces were resuspended in ice-cold PBS with 0.1% BSA and left to settle at the bottom of the tube. The supernatant was collected and filtered through a 70 µm strainer. This process was repeated a total of four times obtaining different fractions. Cells from these fractions were centrifugated at 300× g for 5 min at 4 °C, washed with ice-cold PBS + 0.1% BSA and resuspended on 10 mL of ice-cold DMEM/F12 supplemented with glutamine and HEPES 15 mM (Gibco, Thermo Fisher Scientific, Waltham, MA, USA). After the evaluation under a microscope, the fraction with the highest crypt number but the lowest detritus presence was chosen. This fraction was centrifugated at 200× g for 5 min at 4 °C and the pellet was resuspended in a 1:1 mix of Geltrex GFR LDEV-free (Gibco, Fisher Scientific, Waltham, MA, USA) and IntestiCult™ Organoid Grow Medium Mouse (Stemcell Technologies™, Vancouver, BC, Canada). Fifty microliters of the suspension were pipetted into the middle of each well of a pre-heated 24-well plate and incubated at 37 °C for 10 min to allow polymerization of the matrix. In the end, 500 µL of IntestiCult™ Organoid Grow Medium was added to each well. The plates were incubated at 37 °C and 5% CO2, changing the culture medium every 48 h. Organoids were split 1 into 4 plates after 7 days.
(§3) Drug tolerance assays using murine intestinal organoids were performed in 384-well plates, following a protocol based on previous works and introducing several modifications. Briefly, organoids were prepared discarding the culture medium and adding 800 µL of Gentle Cell Dissociation Reagent (Stemcell Technologies™, Vancouver, BC, Canada) directly on top of matrix domes. After 1 min incubation at room temperature, the matrix was broken by pipetting, and the content of the wells was retrieved. The suspension was incubated at room temperature for 10 min on a rocking platform at 20 rpm, and centrifugated at 300× g for 5 min at 4 °C. The pellet was resuspended in 10 mL of ice-cold DMEM/F12 (Gibco, Fisher Scientific, Waltham, MA, USA) supplemented with glutamine and HEPES 15 mM and centrifugated again at 200× g for 5 min at 4 °C. Cells were resuspended in a 1:1 mix of Geltrex GFR LDEV-free and IntestiCult™ Organoid Grow Medium Mouse (Stemcell Technologies™, Vancouver, Canada). The final volume of the mix was calculated to achieve a 4-fold dilution in the final plate compared to the original plate. The mix was distributed in a 384-well plate (8 µL/well) which was incubated at 37 °C for 10 min. After that, 32 µL of IntestiCult™ Organoid Grow Medium Mouse (Stemcell Technologies™, Vancouver, Canada) were added to each well. The plate was incubated at 37 °C and 5% CO2 and after 4 days, mature organoids were exposed to drugs, alone or combined. For positive control, hydrogen peroxide at the final concentration of 0.15 % v/v was used. […]

[2] = test system: recombinant human DNA topoisomerase IB (hTopIB); design: method as in PMID 31229877, PMID 32279049, PMID 33962152; dose or concentration left out as unconfirmed; settings: cited from earlier work
[3] = test system: two cancer cell lines; design: method as in PMID 31229877, PMID 32279049, PMID 33962152; settings: cited from earlier work
[4] = test system: leishmanial DNA topoisomerase IB (LdTopIB); assay: Relaxation of supercoiled plasmid DNA assay; assay type: biochemical, Leishmania; settings: 100 μM of compounds, 1 min at 37 °C, in words
Method: page 2: DNA DMSO 6b8a8b8c9b10b11a13a13b14a7c8d15b Relaxationof supercoiled plasmid DNA assay. Each reaction contains one unit of purified leishmanial DNA topisomeraseIB enzyme (LdTopIB), 100 μM ofcompounds, 0.5μg of supercoiled […], 10 mM Tris-HCl buffer pH 7.5, 5 mM MgCl 2, 0.1 mM EDTA, 15 μg/mL bovine serum albumin, 150 mM KCl. Reaction mixtures were incubated 1 min at 37 °C and stopped by the addition of 4 μL loading buffer (5% sarkosyl, 0.12% bromophenol blue, 25% glycerol). The topoisomerswere resolved in 1% agarose gels by electrophoresis in 0.1 M Tris borate EDTA buffer (pH 8.0) at 2 V/cm for 16 h and visualized with UV illumination after ethidium bromide (0.5μg/mL) staining. […]

[5] = test system: mouse splenic macrophages; assay: Cytotoxicity in uninfected murine splenic cells (alamarBlue); assay type: cell-based; settings: summary in discussion
Method: Amastigotes obtained from mouse bone marrow cells were used to perform a first screening with the complete series of fused 1,5- and 1,8-naphthyridines. […] The toxicity of these selected compounds was assessed in non-infected splenic cells and the cytotoxic concentration (CC50) value obtained was used to calculate the selective index (SI). The oral tolerability of these same compounds was tested by calculating the viability of murine intestinal organoids exposed to two concentrations (50 and 25 µM). In order to assess the in vitro safety of the naphthyridines, cytotoxicity assays were carried out in ex vivo splenic explants from uninfected mice, which were prepared as previously described to obtain intramacrophagic amastigotes. Cells were seeded at a density of 1 × 10^6 cells per well in 96-well plates containing the prediluted compounds and incubated at 37 °C and 5% CO2 during 72 h. AlamarBlue assay (Invitrogen, Fisher Scientific, Waltham, MA, USA) was used to estimate cell viability following manufacturer’s recommendations. The assays were performed by triplicate. Absorbance of viable cells vs. compound concentrations were fitted by nonlinear analysis using the Sigma Plot 10.1 statistical package to calculate the cytotoxic concentration 50 (CC50) values. Selectivity index (SI) was calculated as the ratio between CC50 and the EC50 values of intramacrophagic amastigotes.

[6] = test system: murine intestinal organoids; assay: Drug tolerance in murine intestinal organoids (alamarBlue); assay type: cell-based, mouse; settings: 50 µM, 72 h exposure
Method: as §1, §2, §3

O=C1Oc2ccccc2C2Nc3ccc(Br)nc3[C@@H](c3ccccc3)C12 (stereo partly drawn) [Compound 6b]
viability at 72 h, 25 µM [1]: 72 ± 5% | viability at 72 h, 50 µM [1]: 60 ± 7%

Cc1ccc(S(=O)(=O)N2CC3C(Nc4ncccc4C3c3ccccc3)c3ccccc32)cc1 (stereo not drawn) [Compound 14a]
viability at 72 h, 25 µM [1]: 90 ± 9% | viability at 72 h, 50 µM [1]: 56 ± 14% | inhibitory effect on DNA relaxation activity of hTopIB [2]: had an inhibitory effect on DNA relaxation activity | cytotoxic effects on two cancer cell lines (concentration range) [3]: 1 to 15 µM | LdTopIB inhibitory activity [4]: did not show leishmanial DNA topoisomerase IB (LdTopIB) inhibitory activity | toxicity (in words) [5]: significant toxicity

Fc1ccc2c(c1)C1Nc3ncccc3[C@@H](c3ccccc3)C1CO2 (stereo partly drawn) [Compound 10b]
Intestinal Organoids 50 µM (%Viability) [6]: 90 ± 22% | viability at 72 h, 25 µM [1]: 99 ± 8% | viability at 72 h, 50 µM [1]: 90%

c1ccc(-c2c3c(nc4ncccc24)-c2ccccc2OC3)cc1 [Compound 11a]
viability at 72 h, 25 µM [1]: 92 ± 1% | viability at 72 h, 50 µM [1]: 96 ± 1%

COc1ccc2c(n1)[C@@H](c1ccccc1)C1CN(S(=O)(=O)c3ccc(C)cc3)c3ccccc3C1N2 (stereo partly drawn) [Compound 8c]
Intestinal Organoids 50 µM (%Viability) [6]: >100% | viability at 72 h, 25 µM [1]: > 100% | viability at 72 h, 50 µM [1]: 100%

Cc1ccc(S(=O)(=O)N2CC3C(Nc4cccnc4[C@H]3c3ccccc3)c3ccccc32)cc1 (stereo partly drawn) [Compound 8a]
viability at 72 h, 25 µM [1]: 93 ± 7% | viability at 72 h, 50 µM [1]: 89 ± 10%

O=c1oc2ccccc2c2nc3ncc(Br)cc3c(-c3ccccc3)c12 [Compound 13b]
viability at 72 h, 25 µM [1]: 90 ± 5% | viability at 72 h, 50 µM [1]: 61 ± 19%

Cc1ccc(S(=O)(=O)N2Cc3c(nc4ncc(Br)cc4c3-c3ccccc3)-c3ccccc32)cc1 [Compound 15b]
viability at 72 h, 25 µM [1]: 58 ± 16% | viability at 72 h, 50 µM [1]: 13 ± 3% | inhibitory effect on DNA relaxation activity of hTopIB [2]: had an inhibitory effect on DNA relaxation activity | cytotoxic effects on two cancer cell lines (concentration range) [3]: 1 to 15 µM | LdTopIB inhibitory activity [4]: did not show leishmanial DNA topoisomerase IB (LdTopIB) inhibitory activity | toxicity (in words) [5]: significant toxicity

O=c1oc2ccccc2c2nc3ncccc3c(-c3ccccc3)c12 [Compound 13a]
viability at 72 h, 25 µM [1]: 87 ± 15% | viability at 72 h, 50 µM [1]: 53 ± 5% | inhibitory effect on DNA relaxation activity of hTopIB [2]: had an inhibitory effect on DNA relaxation activity | cytotoxic effects on two cancer cell lines (concentration range) [3]: 1 to 15 µM | LdTopIB inhibitory activity [4]: did not show leishmanial DNA topoisomerase IB (LdTopIB) inhibitory activity | toxicity (in words) [5]: significant toxicity

Cc1ccc(S(=O)(=O)N2CC3C(Nc4ccc(Br)nc4[C@H]3c3ccccc3)c3ccccc32)cc1 (stereo partly drawn) [Compound 8d]
viability at 72 h, 25 µM [1]: 4 ± 1% | viability at 72 h, 50 µM [1]: 3 ± 1%

COc1ccc2nc3c(c(-c4ccccc4)c2n1)c(=O)oc1ccccc13 [Compound 7c]
viability at 72 h, 25 µM [1]: 99 ± 4% | viability at 72 h, 50 µM [1]: 85 ± 13%
